Reference: patent US8158830B1, “Integrated process for the preparation of tetraaminobenzene” (E. I. du Pont de Nemours and Company, priority 2007, dated 2012)

Assay: solubility of TAB.4HCl in water
Format: physicochemical
Settings: water at 25° C.
Protocol: The reaction mixture containing the precipitated TAB salt is then cooled to about 5° C. to about 15° C. and stirred, then filtered. The TAB salt is then washed 44. It may be washed with deaerated aqueous acid, such as HCl (33%), and then optionally with deaerated ethanol or methanol to produce a wet cake material; the optional ethanol or methanol wash can then be recycled 48, 47, and a purge is drawn to prevent accumulation. Using an agitated filter unit during the wash procedures can allow for a reduction of the wash volumes. Under such circumstances, using small amounts of cold water (e.g. about 5° C.) instead of the aqueous acid would also be effective as the TAB salt would have lower solubility in the cold water than it would have in water at about room temperature (e.g. 25° C.). For example, the solubility of TAB.4HCl in water at 25° C. is about 15 wt %.

Nc1cc(N)c(N)cc1N [TAB.4HCl, 1,2,4,5-tetraminobenzene]
solubility in water: about 15 wt %
